Experimental data from patent US20100316655A1, “COMPOUNDS WITH MDR1-INVERSE ACTIVITY” (priority 2008, published 2010).

Key:
[1] = system: KB-3-1 adenocarcinoma cells; experiment: MTT cytotoxicity assay, parental P-gp-negative KB-3-1 cells; assay type: cell-based, human
Protocol: (§1) Exemplary compounds were also tested against the KB-V1 adenocarcinoma cell line that expresses high levels of P-gp (the protein product of MDR1). […] MDR1 selectivity is determined by the ratio of IC50 against KB-3-1 cells divided by its IC50 against KB-V1 cells.
(§2) This example describes evaluation of compounds using the MTT cytotoxicity assay. Cell survival was measured by the MTT (3-(4,5-dimethylthiazol-2-yl)-2,5-diphenyltetrazolium bromide) assay as previously described by Ludwig, J. A. et al. Selective toxicity of NSC73306 in MDR1-positive cells as a new strategy to circumvent multidrug resistance in cancer. […] Briefly, cells were seeded in […] of growth medium at a density of 5000 cells/well in 96-well plates and allowed to establish for 24 hours, at which time serially diluted drugs were added in an additional […] growth medium. Cells were then incubated for 72 hours at 37° C. in humidified 5% CO2, at which time the growth media was drawn, and replaced with MTT in IMDM growth media and incubated for 4 hours. The MTT solution was then drawn from the wells, and […] acidified ethanol solution was added to each well and after 15 minutes absorption at 560 nm was measured.

[2] = system: KB-V1 adenocarcinoma cell line; experiment: MTT cytotoxicity assay, P-gp (MDR1) expressing KB-V1 cells; MDR1 selectivity vs KB-3-1; assay type: cell-based, human; details: for IC50: MTT, 72 hours; for MDR1 selectivity / MDR1 select.: ratio of IC50 against KB-3-1 divided by IC50 against KB-V1; for MDR1 selectivity: >1 = MDR1-inverse activity; for MDR1-inverse selectivity (in words): Example 3, Table 1, KB-V1 vs KB-3-1
Protocol: as §1, §2

[3] = Homo sapiens, Table 1, 72 hours, KB-3-1 (P-gp-negative)
[4] = Homo sapiens, Table 1, KB-V1 (high P-gp)
[5] = Table 2, 72 hours, unit inferred
[6] = Homo sapiens, KB 3-1, Table 2, 72 hours, unit inferred
[7] = Homo sapiens, KB-V1, Table 2, unit inferred

Row | Structure (SMILES) | IC50 [1, 3] [µM] | IC50 [2, 4] [µM] | IC50 [1, 5] [µM] | IC50 ([2]; Table 2, unit inferred) [µM] | MDR1 select. ([2]; Table 2) | also measured
1 | O=C1Nc2ccccc2C1=O | > 50 | > 50 |  |  |  | 
2 | NC(=S)N/N=C/c1ncccc1N | 1.4 ± 2.5 | 5.9 ± 2.6 |  |  |  | MDR1 selectivity ([2]; Table 1): 0.2
3 | Cc1cnc(/C=N/NC(N)=S)c2cccc(N)c12 | 1.9 ± 0.8 | 2.1 ± 0.3 |  |  |  | MDR1 selectivity ([2]; Table 1): 0.9
4 | CC(=O)Nc1ccc(/C=N/NC(N)=S)cc1 | > 50 | > 50 |  |  |  | 
5 | COc1ccc(NC(=S)NN=C2Cc3ccccc3C2)cc1 | > 50 | > 50 |  |  |  | 
6 | COc1ccc(NC(=S)N/N=C2\CCc3ccccc32)cc1 | > 50 | > 50 |  |  |  | 
7 | NC(=S)N/N=C1\C(=O)Nc2ccccc21 | > 50 | > 50 |  |  |  | 
8 | NC(=O)N/N=C1\C(=O)Nc2ccccc21 | > 50 | > 50 |  |  |  | 
9 | COc1ccc(NC(=S)NN)cc1 | > 50 | > 50 |  |  |  | 
10 | COc1ccc(NC(=S)N/N=C2\C(=O)Nc3ccc(S(=O)(=O)O)cc32)cc1 | > 50 | > 50 |  |  |  | 
11 | COc1ccc(NC(=S)N/N=C2\C(=O)Nc3c2ccc2ccccc32)cc1 | 4.4 ± 3.6 | 30.3 ± 5.9 |  |  |  | MDR1 selectivity ([2]; Table 1): 0.1
12 | COc1ccc(NC(=O)N/N=C2\C(=O)Nc3ccccc32)cc1 | 27.7 ± 3.3 | > 50 |  |  |  | 
13 | COc1ccc(NC(=S)N/N=C/c2ccc(NC(C)=O)cc2)cc1 | > 50 | > 50 |  |  |  | 
14 | COc1ccc(NC(=S)N/N=C2\C(=O)Nc3ccc(F)cc32)cc1 [Compound 7, 1-(5′-Fluoroisatin)-4-(4′-methoxyphenyl)-3-thiosemicarbazone] |  |  |  |  |  | MDR1-inverse selectivity (in words) [2]: MDR1-inverse selectivity
15 | COc1ccc(NC(=S)N/N=C2\C(=O)N(C)c3ccccc32)cc1 [Compound 8, 1-(N-methylisatin)-4-(4′-methoxyphenyl)-3-thiosemicarbazone] |  |  |  |  |  | MDR1-inverse selectivity (in words) [2]: MDR1-inverse selectivity
16 | COc1ccc(NC(=S)N/N=C/c2ccccn2)cc1 [Compound 10, 1-(2′-Pyridinecarboxaldehyde)-4-(4′-methoxyphenyl)-3-thiosemicarbazone] |  |  |  |  |  | MDR1-inverse selectivity (in words) [2]: MDR1-inverse selectivity
17 | COc1ccc(NC(=S)N/N=C2\C(=O)Nc3ccc([N+](=O)[O-])cc32)cc1 [Compound 12, 1-(5′-Nitroisatin)-4-(4′-methoxyphenyl)-3-thiosemicarbazone] |  |  |  |  |  | MDR1-inverse selectivity (in words) [2]: MDR1-inverse selectivity
18 | C=CCNC(=S)N/N=C1\C(=O)Nc2ccccc21 [Compound 13, 1-Isatin-4-allyl-3-thiosemicarbazone] |  |  |  |  |  | MDR1-inverse selectivity (in words) [2]: MDR1-inverse selectivity
19 | CNC(=S)NN=C1C(=O)Nc2ccccc21 [Compound M1, 1-Isatin-4-methyl-3-thiosemicarbazone] |  |  | 35.3 | 19.4 | 1.82 | 
20 | O=C1Nc2ccccc2C1=NNC(=S)NC1CCCCC1 [Compound M2, 1-Isatin 4-cyclohexyl-3-thiosemicarbazone] |  |  | 9.14 | 4.38 | 2.09 | 

Row | Structure (SMILES) | IC50 [1, 3] [µM] | IC50 [2, 4] [µM] | IC50 [1, 5] [µM] | IC50 ([2]; Table 2, unit inferred) [µM] | MDR1 select. ([2]; Table 2) | also measured
21 | CN(C)c1ccc(NC(=S)NN=C2C(=O)Nc3ccccc32)cc1 [Compound M3, 1-Isatin-4-(4′-(dimethylamino)phenyl)-3-thiosemicarbazone] |  |  | 6.95 | 2.23 | 2.99 | 
22 | O=C1Nc2ccccc2C1=NNC(=S)Nc1ccc(O)cc1 [Compound M4, 1-Isatin-(4′-hydroxyphenyl)-3-thiosemicarbazone] |  |  | 35.8 | 21.6 | 1.66 | 
23 | O=C1Nc2ccccc2C1=NNC(=S)Nc1ccccc1Cl [Compound M5, 1-Isatin-(2′-chlorophenyl)-3-thiosemicarbazone] |  |  | 2.22 | 1.17 | 1.89 | 
24 | O=C1Nc2ccccc2C1=NNC(=S)NCc1ccccc1 [Compound M6, 1-Isatin-4-benzyl-3-thiosemicarbazone] |  |  | 11.7 | 7.63 | 1.53 | 
25 | O=C1Nc2ccccc2C1=NNC(=S)Nc1cccc(Cl)c1 [Compound M7, 1-Isatin-(3′-chlorophenyl)-3-thiosemicarbazone] |  |  | 1.87 | 0.64 | 2.92 | 
26 | O=C1Nc2ccccc2C1=NNC(=S)Nc1ccccc1 [Compound M8, 1-Isatin-(phenyl)-3-thiosemicarbazone] |  |  | 3.53 | 1.47 | 2.40 | 
27 | O=C1Nc2ccccc2C1=NNC(=S)Nc1ccc(C(F)(F)F)cc1 [Compound M9, 1-Isatin-4-(4′-(trifluoromethyl)phenyl)-3-thiosemicarbazone] |  |  | 8.59 | 2.1 | 4.09 | 
28 | O=C1Nc2ccc(F)cc2/C1=N/NC(=S)Nc1ccc(F)cc1 [Compound M10, 1-(5′-fluoroisatin)-4-(4′-fluorophenyl)-3-thiosemicarbazone] |  |  |  |  | 4.07 | IC50 [1, 6]: 3.72 µM; IC50 [2, 7]: 0.91 µM
29 | CCCCNC(=S)NN=C1C(=O)Nc2ccccc21 [Compound M11, 1-Isatin-4-butyl-3-thiosemicarbazone] |  |  | 10.9 | 5.69 | 1.91 | 
30 | O=C1Nc2ccccc2C1=NNC(=S)Nc1ccc(Cl)cc1 [Compound M12, 1-Isatin-(4′-chlorophenyl)-3-thiosemicarbazone] |  |  | 13.4 | 4.99 | 2.68 | 
31 | O=C1Nc2ccccc2/C1=N/NC(=S)Nc1c(F)cc(F)cc1F [Compound M13, 1-Isatin-4-(2′,4′,6′-trifluorophenyl)thiosemicarbazone] |  |  |  |  | 5.27 | IC50 [1, 6]: 38.4 µM; IC50 [2, 7]: 7.28 µM
32 | O=C1Nc2ccccc2/C1=N/NC(=S)Nc1ccc(F)cc1 [Compound M14, 1-Isatin-4-(4′-fluorophenyl)thiosemicarbazone] |  |  |  |  | 7.36 | IC50 [1, 6]: 14.2 µM; IC50 [2, 7]: 1.92 µM
33 | CC(C)NC(=S)NN=C1C(=O)Nc2ccccc21 [Compound M15, 1-Isatin-4-isopropyl-3-thiosemicarbazone] |  |  | 39.4 | 10.2 | 3.84 | 
34 | Cc1ccc(NC(=S)N/N=C2\C(=O)Nc3ccccc32)cc1 [Compound M16, 1-Isatin-4-(4′-methylphenyl)thiosemicarbazone] |  |  |  |  | 9.23 | IC50 [1, 6]: 24 µM; IC50 [2, 7]: 2.6 µM
35 | O=C1Nc2ccccc2/C1=N/NC(=S)Nc1ccc([N+](=O)[O-])cc1 [Compound M17, 1-Isatin-4-(4′-nitrophenyl)thiosemicarbazone] |  |  |  |  | 8.27 | IC50 [1, 6]: 17.2 µM; IC50 [2, 7]: 2.07 µM
36 | COc1ccccc1NC(=S)NN=C1C(=O)Nc2ccccc21 [Compound M18, 1-isatin-4-(2′-methoxyphenyl)-3-thiosemicarbazone] |  |  | 4.96 | 2.69 | 1.84 | 
37 | O=C1Nc2ccc([N+](=O)[O-])cc2C1=NNC(=S)Nc1ccccc1 [NSC716766, 1-(5′-Nitroisatin)-4-phenyl-3-thiosemicarbazone] |  |  |  |  |  | MDR1-inverse selectivity (in words) [2]: MDR1-inverse selectivity
38 | O=C1Nc2ccc(Br)cc2/C1=N/NC(=S)Nc1ccc(F)cc1 [NSC716771, 1-(5′-Bromoisatin)-4-(4′-fluorophenyl)-3-thiosemicarbazone] |  |  |  |  |  | MDR1-inverse selectivity (in words) [2]: MDR1-inverse selectivity
39 | O=C1Nc2ccc(Br)cc2/C1=N/NC(=S)Nc1ccc([N+](=O)[O-])cc1 [NSC716772, 1-(5′-Bromoisatin)-4-(4′-nitrophenyl)-3-thiosemicarbazone] |  |  |  |  |  | MDR1-inverse selectivity (in words) [2]: MDR1-inverse selectivity
